Test results: ChEMBL document CHEMBL1151132, “Autooxidation Studies on the Marine Sesterterpene Tetronic Acid, Variabilin” (J Nat Prod, 1989)

What was measured:
[1] = system: Poliovirus 1; experiment: Antiviral activity against PV1 infected in […] BSC cells at 5 ug/6 mm disk; format: functional
[2] = Cytotoxicity against […] BSC cells at 5 ug /6 mm disk; format: cell-based
[3] = Cytotoxicity against […] BSC cells at 20 ug /6 mm disk; format: cell-based
[4] = system: Poliovirus 1; experiment: Antiviral activity against PV1 infected in […] BSC cells at 20 ug/6 mm disk; format: functional
[5] = system: Human alphaherpesvirus 1; experiment: Antiviral activity against HSV1 infected in […] BSC cells at 20 ug/6 mm disk; format: functional
[6] = system: Poliovirus 1; experiment: Antiviral activity against PV1 infected in […] BSC cells at 2 ug/6 mm disk; format: functional
[7] = Cytotoxicity against […] BSC cells at 2 ug /6 mm disk; format: cell-based
[8] = system: Human alphaherpesvirus 1; experiment: Antiviral activity against HSV1 infected in […] BSC cells at 2 ug/6 mm disk; format: functional

For `C/C(=C\CCc1ccoc1)CC/C=C(\C)CCCC(C)CC(=O)O` (stereo unspecified), the “inhibition zone (IZ)” value [1] was 2 mm and the “inhibition zone (IZ)” value [2] was 2 mm.
With `COC1=C(C)C(=O)O/C1=C\C(C)CCC/C(C)=C/CC/C(C)=C/CCC1(O)C(OC)OC(OC)C1O` (mixture of isomers) the “inhibition zone (IZ)” value [3] was 1 mm, the “inhibition zone (IZ)” value [4] was 4 mm and the “inhibition zone (IZ)” value [5] was 4 mm.
In the case of `COC1=C(C)C(=O)O/C1=C\C(C)CCC/C(C)=C/CC/C(C)=C/CCC1=CC(O)OC1=O` (mixture of isomers), the “inhibition zone (IZ)” value [3] is reported as 4 mm, the “inhibition zone (IZ)” value [6] is reported as 2 mm and the “inhibition zone (IZ)” value [7] is reported as 2 mm.
For `COC1=C(C)C(=O)O/C1=C\C(C)CCC/C(C)=C/CC/C(C)=C/CCC1=CC(=O)OC1O` (mixture of isomers), the “inhibition zone (IZ)” value [3] was 2 mm, the “inhibition zone (IZ)” value [4] was 4 mm and the “inhibition zone (IZ)” value [6] was 2 mm. For the same molecule, the “inhibition zone (IZ)” value [7] was 1 mm and the “inhibition zone (IZ)” value [5] was 4 mm.
With `CC1=C(O)/C(=C/C(C)CCC/C(C)=C/CC/C(C)=C/CCc2ccoc2)OC1=O` (stereo unspecified) [VARIABILIN] the “inhibition zone (IZ)” value [6] was 4 mm, the “inhibition zone (IZ)” value [7] was 1 mm and the “inhibition zone (IZ)” value [8] was 4 mm.
